30 compounds from ChEMBL document CHEMBL1156817, “Fructose-1,6-bisphosphatase Inhibitors. 2. Design, synthesis, and structure-activity relationship of a series of phosphonic acid containing benzimidazoles that function as 5'-adenosinemonophosphate (AMP) mimics” (J Med Chem, 2010) can be followed below.

The test system of series [1] is Rattus norvegicus. As to the kind of experiment: Reduction of blood glucose level in 18 hrs fasted normal Sprague-Dawley rat at 10 mg/kg, iv after 1 hr interval. Further details: scale not given: the % may be the effect or the level left. In kind it is functional.
Series [2] addresses Adenosine kinase (Homo sapiens, UniProt P55263). Kind of series: Inhibition of adenosine kinase AMP binding site.
Series [3] in a line: Inhibition of adenylate kinase AMP binding site.
The test system of series [4] is Hepatocyte. As to the kind of experiment: Inhibition of glucose production in rat primary hepatocytes at 10 uM. In kind it is functional, cell-based.
Series [5] deals with Hepatocyte. Kind of series: Inhibition of glucose production in rat primary hepatocytes at 100 uM. Type of series: functional, cell-based.
Series [6] concerns Rattus norvegicus. As to the kind of experiment: Reduction of blood glucose level in 5 hrs fasted ZDF rat at 10 mg/kg, iv administered every 1 hr for 6 hrs. In kind it is functional, organism-based. Further details: dose 10 mg/kg.
The nature of series [7]: Oral bioavailability in 18 hrs fasted normal Sprague-Dawley rat up to 100 mg/kg by urinary excretion assay. In kind it is ADME, organism-based. The following applies: urine.
Series [8] has as its target T1, ATP-dependent 6-phosphofructokinase, muscle type (Homo sapiens, UniProt P08237).
T1 sequence (P08237 whole entry): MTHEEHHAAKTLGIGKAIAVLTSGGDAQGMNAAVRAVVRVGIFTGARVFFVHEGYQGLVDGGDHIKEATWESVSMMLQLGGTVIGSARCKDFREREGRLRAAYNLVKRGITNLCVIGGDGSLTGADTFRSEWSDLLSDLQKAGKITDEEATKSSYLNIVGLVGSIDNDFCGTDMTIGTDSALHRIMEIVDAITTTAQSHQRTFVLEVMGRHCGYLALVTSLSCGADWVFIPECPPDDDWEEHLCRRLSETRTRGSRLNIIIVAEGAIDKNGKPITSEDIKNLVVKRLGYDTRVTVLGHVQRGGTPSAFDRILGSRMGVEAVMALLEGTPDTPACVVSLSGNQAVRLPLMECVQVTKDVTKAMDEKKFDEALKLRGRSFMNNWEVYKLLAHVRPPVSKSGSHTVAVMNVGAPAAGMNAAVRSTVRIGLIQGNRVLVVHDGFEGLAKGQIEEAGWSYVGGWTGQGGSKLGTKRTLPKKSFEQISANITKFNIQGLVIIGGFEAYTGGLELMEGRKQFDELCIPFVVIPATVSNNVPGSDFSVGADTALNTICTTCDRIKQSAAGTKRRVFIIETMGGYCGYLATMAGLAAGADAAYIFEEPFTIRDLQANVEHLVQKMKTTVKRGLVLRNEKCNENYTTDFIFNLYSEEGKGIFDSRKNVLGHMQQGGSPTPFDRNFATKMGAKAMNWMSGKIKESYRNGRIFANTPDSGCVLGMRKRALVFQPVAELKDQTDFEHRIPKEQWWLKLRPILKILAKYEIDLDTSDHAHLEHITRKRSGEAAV
As to the kind of experiment: Activation of phosphofructokinase AMP binding site.

Series [9] in a line: Activation of glycogen phosphorylase AMP binding site.
The target of series [10] is T2, Fructose-1,6-bisphosphatase 1 (Homo sapiens, UniProt P09467).
T2 sequence (P09467 whole entry): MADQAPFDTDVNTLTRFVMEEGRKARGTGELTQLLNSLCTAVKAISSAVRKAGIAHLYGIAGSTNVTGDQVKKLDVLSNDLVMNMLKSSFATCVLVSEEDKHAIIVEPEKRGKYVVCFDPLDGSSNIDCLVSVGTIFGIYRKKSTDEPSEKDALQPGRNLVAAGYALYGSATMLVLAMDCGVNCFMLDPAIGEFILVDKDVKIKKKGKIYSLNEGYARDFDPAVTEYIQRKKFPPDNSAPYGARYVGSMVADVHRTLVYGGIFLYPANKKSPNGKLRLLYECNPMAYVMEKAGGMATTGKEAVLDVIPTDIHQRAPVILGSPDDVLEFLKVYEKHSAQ
As to the kind of experiment: Inhibition of human liver FBPase 1.

The target in series [11] is T3, Fructose-1,6-bisphosphatase 1 (Rattus norvegicus, UniProt P19112).
T3 sequence (P19112 whole entry): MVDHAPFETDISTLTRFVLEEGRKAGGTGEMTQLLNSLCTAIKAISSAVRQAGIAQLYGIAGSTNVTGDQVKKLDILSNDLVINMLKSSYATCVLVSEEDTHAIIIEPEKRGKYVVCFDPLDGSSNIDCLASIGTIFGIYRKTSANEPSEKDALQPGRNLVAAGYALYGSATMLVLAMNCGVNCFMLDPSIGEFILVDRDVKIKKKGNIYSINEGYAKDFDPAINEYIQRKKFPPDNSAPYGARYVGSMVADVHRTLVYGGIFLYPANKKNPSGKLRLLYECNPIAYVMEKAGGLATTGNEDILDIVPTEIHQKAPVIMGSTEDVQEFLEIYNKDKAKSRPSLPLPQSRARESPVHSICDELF
As to the kind of experiment: Inhibition of rat liver FBPase 1.

Series [12] has as its system Hepatocyte. Kind of series: cells. To be noted: Rattus norvegicus.

Activity calls are given as the source filed them. The calls are words filed in the database; no cut-off is given here. A value given as a limit tells only on which side of the number the result lay.

Chain of Adenosine kinase (P55263 whole entry): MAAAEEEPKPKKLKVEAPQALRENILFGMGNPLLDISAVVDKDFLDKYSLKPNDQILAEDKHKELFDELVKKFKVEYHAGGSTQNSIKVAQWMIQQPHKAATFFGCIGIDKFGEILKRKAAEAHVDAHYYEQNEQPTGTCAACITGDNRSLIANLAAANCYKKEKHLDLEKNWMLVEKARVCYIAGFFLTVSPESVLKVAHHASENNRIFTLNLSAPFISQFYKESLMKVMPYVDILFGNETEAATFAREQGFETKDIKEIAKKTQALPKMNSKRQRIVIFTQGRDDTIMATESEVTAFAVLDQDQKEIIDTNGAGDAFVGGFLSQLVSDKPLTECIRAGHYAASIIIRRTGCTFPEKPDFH

For orientation: IC50 means the point on the concentration scale where inhibition reaches its midpoint. What is called bioavailability is dose-corrected exposure relative to a reference, in per cent. What is called EC50 is the concentration at which the effect is half-maximal. As for `CCc1cc(F)c(N)c2nc(-c3ccc(P(=O)(O)O)o3)n(CC(C)C)c12`, in series [1], the Activity was 64%. For the same compound, the IC50 in series [2] and in [3] was above 100 µM throughout. Besides, the outcome in series [4], in series [5] and in series [6] was Active. The bioavailability in series [7] was determined as 1%. The EC50 in series [8] and in series [9] was above 100 µM throughout.
As to `CC(C)Cn1c(-c2ccc(P(=O)(O)O)o2)nc2c(N)c(F)cc(CCC(C)(C)C)c21`, the values for the IC50 in series [10], in [11] and in series [12] were 0.21 µM, 1.6 µM and 18 µM, respectively. Besides, in series [1], the Activity is recorded as 28%.
On the same counts, the results for `CCCc1cc(F)c(N)c2nc(-c3ccc(P(=O)(O)O)o3)n(CC(C)C)c12` are 0.1 µM, 0.65 µM, 5.5 µM and 60%.
Take `CC(C)Cn1c(-c2ccc(P(=O)(O)O)o2)nc2c(N)c(F)cc(CCCCCl)c21`: the IC50 in series [10] is 0.07 µM; in series [11], 0.5 µM; in series [12], 3.1 µM. The compound also yielded an Activity in [1] of 47%.
`CCc1cc(F)c(N)c2nc(-c3ccc(P(=O)(Oc4ccc(C(=O)OC(C)(C)C)cc4)Oc4ccc(C(=O)OC(C)(C)C)cc4)o3)n(CC(C)C)c12`: the bioavailability in [7] was found to be 2%.
`CC(C)Cn1c(-c2ccc(P(=O)(O)O)o2)nc2c(N)c(F)cc(CCCN(C)C)c21`: the IC50 stood at 0.055 µM in [10] and 0.4 µM in [11]. This compound also had an Activity in series [1] of 44%.
For the compound `CC(C)Cn1c(-c2ccc(P(=O)(O)O)o2)nc2c(N)c(F)cc(-c3ccccc3)c21`, the IC50 in series [10] worked out at 0.09 µM; in series [11] it was 0.9 µM; in series [12] it was 18 µM. Further, the Activity in series [1] was 0%.
As for `CC(C)Cn1c(-c2ccc(P(=O)(O)O)o2)nc2c(N)c(F)cc(-c3ccc(F)cc3)c21`, the results for the IC50 in series [10], in series [11] and in series [12] were 0.18 µM, 1.3 µM and 21 µM, respectively. In series [1], the Activity is 0%.
On the same counts, the results for `CC(C)Cn1c(-c2ccc(P(=O)(O)O)o2)nc2c(N)c(F)cc(CCCO)c21` are 0.08 µM, 0.45 µM, 1 µM and 63%.
In series [7], `CCc1cc(F)c(N)c2nc(-c3ccc(P(=O)(OCC(=O)OC(C)(C)C)OCC(=O)OC(C)(C)C)o3)n(CC(C)C)c12.Cl` displayed a bioavailability of 2%.
For `CCC(CC)Cn1c(-c2ccc(P(=O)(O)O)o2)nc2c(N)c(F)ccc21`, the IC50 in series [10] stood at 0.15 µM; in [11], 0.85 µM; in [12], 5 µM.
In the case of `Nc1cccc2c1nc(-c1ccc(P(=O)(O)O)o1)n2CC1CCC1`, the IC50 is 0.8 µM in series [10], 2 µM in series [11] and 40 µM in [12].
On to `Nc1cccc2c1nc(-c1ccc(P(=O)(O)O)o1)n2CC1CCCCC1`, for which the values for the IC50 in series [10], in [11] and in [12] were 2.5 µM, 20 µM and 100 µM, respectively.
On the same counts, the results for `CCC(CC)n1c(-c2ccc(P(=O)(O)O)o2)nc2c(N)c(F)ccc21` are 0.85 µM, 2.5 µM and 9.5 µM.
Consider `CCOC(=O)[C@H](C)NP(=O)(N[C@@H](C)C(=O)OCC)c1ccc(-c2nc3c(N)c(F)cc(CC)c3n2CC(C)C)o1`, for which, in series [7], the bioavailability turned out to be 5%.
Regarding `CC(C)Cn1c(-c2ccc(P(=O)(O)O)o2)nc2c(N)c(F)cc(Br)c21`, the IC50 amounted to 0.13 µM in [10], 2.09 µM in series [11] and 5 µM in [12].
The like results for `CCCc1ccc2c(nc(-c3ccc(P(=O)(O)O)o3)n2CC(C)C)c1N` were, in that order, 3 µM, 20 µM and 50 µM.
As for `CC(C)Cn1c(-c2ccc(P(=O)(O)O)o2)nc2c(N)c(Cl)cc(Cl)c21`, the results for the IC50 in series [10], in series [11] and in series [12] were 0.45 µM, 2 µM and 14 µM, respectively.
Take `CCc1cc(F)c(N)c2nc(-c3ccc(P(=O)(OCCSC(C)=O)OCCSC(C)=O)o3)n(CC(C)C)c12`: the bioavailability in series [7] turned out to be 2%.
Still for that read-out and setting: for `CCc1cc(F)c(N)c2nc(-c3ccc(P(=O)(OCC(=O)OC(C)(C)C)OCC(=O)OC(C)(C)C)o3)n(CC(C)C)c12` the value was 2%.
Consider `CC(C)Cn1c(-c2ccc(P(=O)(O)O)o2)nc2c(N)c(Cl)ccc21`, for which the IC50 in series [10] amounted to 0.2 µM; in series [11], 2 µM; in series [12], 15 µM.
The like results for `CC(C)Cn1c(-c2ccc(P(=O)(O)O)o2)nc2c(N)c(O)ccc21` were, in that order, 0.5 µM, 20 µM and 25 µM.
On the same counts, the results for `Nc1cccc2c1nc(-c1ccc(P(=O)(O)O)o1)n2CC1CCCCCC1` are 3.25 µM, 20 µM and 100 µM.
In the case of `Nc1cccc2c1nc(-c1ccc(P(=O)(O)O)o1)n2CC1CCCC1`, the IC50 worked out at 1.5 µM in [10], 2 µM in series [11] and 45 µM in series [12].
On the same counts, the results for `Nc1cccc2c1nc(-c1ccc(P(=O)(O)O)o1)n2CC1CC1` are 0.8 µM, 20 µM and 100 µM.
As for `CCOC(=O)OCOP(=O)(OCOC(=O)OCC)c1ccc(-c2nc3c(N)c(F)cc(CC)c3n2CC(C)C)o1`, the bioavailability in [7] amounted to 2%.
In the case of `Nc1cccc2c1nc(-c1ccc(P(=O)(O)O)o1)n2Cc1ccc(-c2ccccc2)cc1`, the values for the IC50 in series [10], in series [11] and in [12] were 2.5 µM, 20 µM and 100 µM, respectively.
On to `CC(C)Cn1c(-c2ccc(P(=O)(O)O)o2)nc2c(N)c(F)cc(C3CC3)c21`, for which the IC50 came to 0.06 µM in series [10], 0.35 µM in [11] and 1.5 µM in series [12]. Moreover, in series [1], the Activity came out at 64%.
Regarding `COc1ccc2c(nc(-c3ccc(P(=O)(O)O)o3)n2CC(C)C)c1N`, the half-maximal inhibitory concentration (IC50) stood at 0.7 µM in [10], 2 µM in [11] and 16 µM in series [12].
On the same counts, the results for `Nc1cccc2c1nc(-c1ccc(P(=O)(O)O)o1)n2Cc1cccc(O)c1` are 1.85 µM, 20 µM and 100 µM.
